From PubChem BioAssay AID248 (DTP/NCI, 2004)
“And” between values parts separate entries of the source, which are not always exact repeats. Equal entries are not always repeated. Toxic doses and inconclusive results are not listed. Cut-off read from the data, not from the text of the source: active = T/C of 150% or more; inactive = T/C below 125%.

Tested on: L1210 leukemia ip in BDF1 mice, survival T/C
Test: NCI In Vivo Anticancer Drug Screen. Data for tumor model L1210 Leukemia (intraperitoneal) in B6D2F1 (BDF1) mice
Details: endpoint: mean survival time, higher = longer survival
In short: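 Read-out is survival time, reported as the treated-group measurement over the vehicle-control measurement.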

[1] = dose: 100.0 mg/kg/injection, schedule: Q04DX002 (ip), vehicle: saline
[2] = dose: 200.0 mg/kg/injection, schedule: Q04DX002 (ip), vehicle: saline
[3] = dose: 400.0 mg/kg/injection, schedule: Q04DX002 (ip), vehicle: saline
[4] = dose: 100.0 mg/kg/injection, schedule: Q04DX003 (ip), vehicle: saline with Tween-80
[5] = dose: 50.0 mg/kg/injection, schedule: Q01DX009 (ip), vehicle: saline with Tween-80
[6] = dose: 100.0 mg/kg/injection, schedule: Q01DX009 (ip), vehicle: saline with Tween-80
[7] = dose: 200.0 mg/kg/injection, schedule: Q01DX009 (ip), vehicle: saline with Tween-80
[8] = dose: 100.0 mg/kg/injection, schedule: Q04DX003 (ip), vehicle: saline
[9] = dose: 200.0 mg/kg/injection, schedule: Q04DX003 (ip), vehicle: saline
[10] = dose: 400.0 mg/kg/injection, schedule: Q04DX003 (ip), vehicle: saline

Measured: T/C

CCOCc1c(COc2ccc(Cl)cc2)n(C)c2ccccc12
inactive: [1] 98 % of control | [2] 98 % of control | [3] 104 % of control

CNC(=O)Oc1ccccc1NC(=O)OC
inactive: dose: 25.0 mg/kg/injection, schedule: Q04DX003 (ip), vehicle: saline with Tween-80 97 % of control | dose: 50.0 mg/kg/injection, schedule: Q04DX003 (ip), vehicle: saline with Tween-80 95 % of control | [4] 92 % of control and 97 % of control

COc1cc(C=O)ccc1OCCCOc1ccc(C=O)cc1OC
inactive: [5] 104 % of control | [6] 93 % of control | [7] 101 % of control

O=C(OC1CSC(OC(=O)c2ccccc2)CS1)c1ccccc1 (centres undefined)
inactive: dose: 100.0 mg/kg/injection, schedule: Q04DX002 (ip), vehicle: saline with Tween-80 95 % of control | dose: 200.0 mg/kg/injection, schedule: Q04DX002 (ip), vehicle: saline with Tween-80 95 % of control | dose: 400.0 mg/kg/injection, schedule: Q04DX002 (ip), vehicle: saline with Tween-80 91 % of control

O=C(O)c1[nH]c(=O)[nH]c(=O)c1N1CCCCC1
inactive: dose: 12.0 mg/kg/injection, schedule: Q01DX001 (ip), vehicle: saline 106 % of control | dose: 25.0 mg/kg/injection, schedule: Q01DX001 (ip), vehicle: saline 101 % of control | dose: 25.0 mg/kg/injection, schedule: Q01DX009 (ip), vehicle: Klucel (hydroxypropylcellulose) (HPC) 105 % of control | dose: 50.0 mg/kg/injection, schedule: Q01DX009 (ip), vehicle: Klucel (hydroxypropylcellulose) (HPC) 92 % of control

O=C(O)C(F)(F)C(F)(Cl)C(F)(F)C(F)(Cl)C(F)(F)C(F)(Cl)C(F)(F)Cl (centres undefined) (tested in a mixture with another compound)
inactive: [8] 90 % of control | [9] 101 % of control | [10] 101 % of control

Nc1ccc(S(=O)(=O)NS(=O)(=O)c2ccccc2)cc1
inactive: dose: 100.0 mg/kg/injection, schedule: Q01DX001 (ip), vehicle: saline 95 % of control | dose: 200.0 mg/kg/injection, schedule: Q01DX001 (ip), vehicle: saline 93 % of control | dose: 400.0 mg/kg/injection, schedule: Q01DX001 (ip), vehicle: saline 101 % of control

CC(C(=O)C(Cc1ccccc1)c1ccccc1)C1CCC2C3C(OC=O)CC4CC(OC=O)CCC4(C)C3CC(OC=O)C12C (centres undefined)
inactive: dose: 12.5 mg/kg/injection, schedule: Q01DX009 (ip), vehicle: saline with Tween-80 90 % of control | dose: 25.0 mg/kg/injection, schedule: Q01DX009 (ip), vehicle: saline with Tween-80 87 % of control | [5] 90 % of control | [6] 91 % of control | [7] 88 % of control

O=C(Cc1ccccc1)Nc1cccc2ccccc12
inactive: dose: 100.0 mg/kg/injection, schedule: Q01DX009 (ip), vehicle: Klucel (hydroxypropylcellulose) (HPC) 101 % of control | dose: 200.0 mg/kg/injection, schedule: Q01DX009 (ip), vehicle: Klucel (hydroxypropylcellulose) (HPC) 95 % of control | dose: 400.0 mg/kg/injection, schedule: Q01DX009 (ip), vehicle: Klucel (hydroxypropylcellulose) (HPC) 91 % of control

CCSc1cccc(C(=O)O)c1
inactive: dose: 100.0 mg/kg/injection, schedule: Q01DX001 (ip), vehicle: carboxymethylcellulose (CMC) 102 % of control | dose: 200.0 mg/kg/injection, schedule: Q01DX001 (ip), vehicle: carboxymethylcellulose (CMC) 94 % of control | dose: 400.0 mg/kg/injection, schedule: Q01DX001 (ip), vehicle: carboxymethylcellulose (CMC) 100 % of control

C/C=C1\CCOC1=O
inactive: [1] 94 % of control | [2] 91 % of control | [3] 105 % of control

O=C(c1ccccc1)c1ccco1
inactive: dose: 50.0 mg/kg/injection, schedule: Q01DX009 (ip), vehicle: saline 102 % of control | dose: 100.0 mg/kg/injection, schedule: Q01DX009 (ip), vehicle: saline 91 % of control | dose: 200.0 mg/kg/injection, schedule: Q01DX009 (ip), vehicle: saline 93 % of control

CCCCCCCCCCCCCCCCC[CH2][Sn]([Cl])([CH2]CCCCCCCCCCCCCCCCC)[CH2]CCCCCCCCCCCCCCCCC
inactive: dose: 100.0 mg/kg/injection, schedule: Q04DX002 (ip), vehicle: Klucel (hydroxypropylcellulose) (HPC) 92 % of control | dose: 200.0 mg/kg/injection, schedule: Q04DX002 (ip), vehicle: Klucel (hydroxypropylcellulose) (HPC) 100 % of control | dose: 400.0 mg/kg/injection, schedule: Q04DX002 (ip), vehicle: Klucel (hydroxypropylcellulose) (HPC) 96 % of control

CCCCCCCCCCP(=S)(CCCC)CCCC
inactive: dose: 100.0 mg/kg/injection, schedule: Q04DX003 (ip), vehicle: Klucel (hydroxypropylcellulose) (HPC) 98 % of control | dose: 200.0 mg/kg/injection, schedule: Q04DX003 (ip), vehicle: Klucel (hydroxypropylcellulose) (HPC) 101 % of control | dose: 400.0 mg/kg/injection, schedule: Q04DX003 (ip), vehicle: Klucel (hydroxypropylcellulose) (HPC) 104 % of control

CC(C)N=Cc1cc(I)cc(I)c1O.CC(C)N=Cc1cc(I)cc(I)c1O.[Co]
inactive: [8] 88 % of control | [9] 94 % of control | [10] 102 % of control

CC(=O)N/N=C/c1ccc([N+](=O)[O-])s1
inactive: [4] 94 % of control
